Measured values as given in patent US9732075B2, “Benzimidazole-proline derivatives” (IDORSIA PHARMACEUTICALS LTD, priority 2012, dated 2017).

Key:
human orexin-1 receptor = human orexin-1 receptor (Homo sapiens (Human), UniProt O43613); assay: In vitro assay: intracellular calcium measurements (FLIPR), antagonistic activity; format: cell-based; conditions: CHO cells expressing human orexin-1 receptor, orexin-A agonist, geometric mean, read-out: IC50 Ox1
In short: (§1)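 Orexin-A-evoked calcium rise (3 nM final, roughly EC70) was recorded with fluo-4 in recombinant CHO cells, human receptor subtype 1 or 2.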

human orexin-2 receptor = human orexin-2 receptor (Homo sapiens (Human), UniProt O43614); assay: as above; format: cell-based; conditions: CHO cells expressing human orexin-2 receptor, orexin-A agonist, geometric mean, read-out: IC50 Ox2
In short: as §1

Sequence of human orexin-2 receptor (O43614 whole entry): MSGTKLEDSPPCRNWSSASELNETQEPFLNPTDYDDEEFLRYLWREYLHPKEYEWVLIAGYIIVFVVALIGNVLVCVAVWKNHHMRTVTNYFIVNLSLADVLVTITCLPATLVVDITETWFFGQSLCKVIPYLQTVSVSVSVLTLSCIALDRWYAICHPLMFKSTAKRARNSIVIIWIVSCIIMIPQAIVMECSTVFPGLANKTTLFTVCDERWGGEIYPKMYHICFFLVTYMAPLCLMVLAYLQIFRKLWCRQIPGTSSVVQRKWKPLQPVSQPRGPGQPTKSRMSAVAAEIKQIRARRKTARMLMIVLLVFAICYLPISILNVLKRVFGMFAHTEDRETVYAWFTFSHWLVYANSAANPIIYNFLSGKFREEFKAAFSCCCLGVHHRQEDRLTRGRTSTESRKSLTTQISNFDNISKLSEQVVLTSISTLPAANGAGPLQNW
Sequence of human orexin-1 receptor (O43613 whole entry): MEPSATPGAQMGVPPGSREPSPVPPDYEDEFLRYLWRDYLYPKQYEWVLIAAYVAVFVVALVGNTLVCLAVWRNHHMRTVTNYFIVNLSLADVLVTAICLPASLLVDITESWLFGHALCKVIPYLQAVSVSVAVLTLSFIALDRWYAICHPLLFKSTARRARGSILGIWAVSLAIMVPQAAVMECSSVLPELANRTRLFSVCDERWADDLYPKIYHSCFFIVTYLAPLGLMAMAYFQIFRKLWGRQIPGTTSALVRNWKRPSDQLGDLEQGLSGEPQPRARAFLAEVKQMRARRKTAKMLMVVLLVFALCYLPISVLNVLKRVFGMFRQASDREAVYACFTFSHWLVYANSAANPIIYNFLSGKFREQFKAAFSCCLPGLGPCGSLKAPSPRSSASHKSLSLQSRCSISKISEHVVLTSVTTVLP

Structure (SMILES) | IC50 (human orexin-1 receptor) [nM] | IC50 (human orexin-2 receptor) [nM]
Cc1ccc(-c2ccc(F)cc2)c(C(=O)N2CCC[C@@]2(C)c2nc3c(C)c(C)ccc3[nH]2)c1 [Ex. 5.115] | 22 | 18
Cc1c(Cl)ccc2[nH]c([C@@H]3[C@@H](C)CCN3C(=O)c3c(F)cccc3-c3ncccn3)nc12 [Ex. 4.177] | 9 | 219
C=C1C[C@@H](c2nc3cc(OC)ccc3[nH]2)N(C(=O)c2ccccc2-n2nccn2)C1 [Ex. 6.13] | 155 | 17
C=C1C[C@@H](c2nc3cc(OC)ccc3[nH]2)N(C(=O)c2c(F)cccc2-n2nccn2)C1 [Ex. 6.19] | 1530 | 61
C=C1C[C@@H](c2nc3ccc(Cl)c(C)c3[nH]2)N(C(=O)c2cc(OC)ccc2-n2nccn2)C1 [Ex. 6.131] | 9 | 0.5
C=C1C[C@@H](c2nc3cc(OC)ccc3[nH]2)N(C(=O)c2cncnc2-c2cccc(C)c2)C1 [Ex. 6.17] | 308 | 47
CSc1ccc2nc([C@@H]3CCCN3C(=O)c3ccccc3-n3nccn3)[nH]c2c1 [Ex. 1.47] | 446 | 13
CSc1ccc2nc([C@@H]3CCCN3C(=O)c3cnc(C)nc3-c3cc(Cl)cc(Cl)c3)[nH]c2c1 [Ex. 1.59] | 77 | 252
C=C1C[C@@H](c2nc3cc(C(C)(C)C)ccc3[nH]2)N(C(=O)c2nc(C)ccc2-n2cccn2)C1 [Ex. 6.173] | 842 | 64
C=C1C[C@@H](c2nc3c(C)cccc3[nH]2)N(C(=O)c2nc(C)sc2-c2ccc(C)c(C)c2)C1 [Ex. 6.53] | 4 | 1
C=C1C[C@@H](c2nc3cc(C(C)(C)C)ccc3[nH]2)N(C(=O)c2cc(F)ccc2-n2nccn2)C1 [Ex. 6.160] | 326 | 8
Cc1ccc(-n2nccn2)c(C(=O)N2CCC[C@@]2(C)c2nc3c(C)c(Cl)ccc3n2C)c1 [Ex. 7.3] | 1 | 3
Cc1nc(C(=O)N2CC[C@H](C)[C@H]2c2nc3cc(F)ccc3[nH]2)c(-c2cccc(Cl)c2)s1 [Ex. 4.20] | 28 | 2450
C=C1CN(C(=O)c2ccccc2-c2ccc(F)c(C)c2)C(C)(c2nc3cc(OC)ccc3[nH]2)C1 (racemic) [Ex. 6.151] | 46 | 44
Cc1nc(C(=O)N2CCCC2c2nc3cc(OC(F)(F)F)ccc3[nH]2)c(-c2cccc(Cl)c2)s1 (centres unmarked) [Ex. 1.108] | 171 | 835
Cc1ccc2[nH]c([C@@H]3[C@@H](C)CCN3C(=O)c3nc(C)sc3-c3ccccc3)nc2c1 [Ex. 4.5] | 29 | 3190
COc1ccccc1-c1ccc(C)cc1C(=O)N1CCC[C@@]1(C)c1nc2cc(C(F)(F)F)ccc2[nH]1 [Ex. 5.185] | 91 | 283
COc1cccc(-c2sc(C)nc2C(=O)N2CCC[C@H]2c2nc3ccc(OC)cc3[nH]2)c1 [Ex. 1.20] | 692 | 121
CO[C@@H]1C[C@@H](c2nc3ccc(Cl)c(C)c3[nH]2)N(C(=O)c2ccccc2-c2ccc(C)c(C)c2)C1 [Ex. 3.38] | 6 | 13
CCc1ccc(-c2sc(C)nc2C(=O)N2CCC[C@H]2c2nc3cccc(SC)c3[nH]2)cc1 [Ex. 1.69] | 37 | 31
Cc1nc(C(=O)N2CCCC2c2nc3c(Br)cc(F)cc3[nH]2)c(-c2ccccc2)s1 (centres unmarked) [Ex. 1.138] | 35 | 109
C=C1CN(C(=O)c2nc(N(C)C)sc2-c2cccc(Cl)c2)C(C)(c2nc3cc(OC)ccc3[nH]2)C1 (centres unmarked) [Ex. 6.152] | 5 | 20
Cc1nc(C(=O)N2CC[C@H](C)[C@H]2c2nc3c(F)c(F)ccc3[nH]2)c(-c2cccc(Cl)c2)s1 [Ex. 4.23] | 9 | 1940
Cc1c(Cl)ccc2[nH]c([C@]3(C)CCCN3C(=O)c3nc(-c4cc(F)ccc4F)sc3-c3ccc(F)cc3)nc12 [Ex. 5.261] | 4 | 466
CSc1ccc2nc([C@@H]3CCCN3C(=O)c3cc(C#N)ccc3-n3nccn3)[nH]c2c1 [Ex. 1.152] | 282 | 23

Structure (SMILES) | IC50 (human orexin-1 receptor) [nM] | IC50 (human orexin-2 receptor) [nM]
CO[C@H]1CN(C(=O)c2c(F)cccc2-n2nccn2)C(C)(c2nc3c(C)c(Cl)ccc3[nH]2)C1 (some centres unmarked) [Ex. 3.42] | 193 | 395
CSc1cccc2nc([C@@H]3CCCN3C(=O)c3cnc(C)nc3-c3ccc(F)cc3)[nH]c12 [Ex. 1.80] | 41 | 564
CSc1ccc2nc([C@@H]3CCCN3C(=O)c3nccnc3-c3cc(C)cc(F)c3)[nH]c2c1 [Ex. 1.45] | 501 | 109
Cc1nc(C(=O)N2CCCC2c2nc3c(Br)cccc3[nH]2)c(-c2ccccc2)s1 (centres unmarked) [Ex. 1.130] | 113 | 75
CCn1c([C@]2(C)CCCN2C(=O)c2nc(C)sc2-c2ccccc2)nc2c(C)c(Cl)ccc21 [Ex. 7.8] | 2 | 4
Cc1ccc(C(=O)N2CC[C@H](C)[C@H]2c2nc3cc(Cl)c(C)cc3[nH]2)c(-c2cccnc2)c1 [Ex. 4.110] | 13 | 1520
C=C1CN(C(=O)c2nc(C)sc2-c2ccc(C)cc2)C(C)(c2nc3cc(OC)ccc3[nH]2)C1 (centres unmarked) [Ex. 6.148] | 19 | 40
COc1ccc2nc([C@@H]3CCCN3C(=O)c3nc(C4CC4)sc3-c3ccc(C)cc3)[nH]c2c1 [Ex. 1.23] | 523 | 212
C=C1C[C@@H](c2nc3cc(OC)ccc3[nH]2)N(C(=O)c2nc(C)sc2-c2ccc(Cl)cc2)C1 [Ex. 6.5] | 216 | 19
Cc1cc(C)c2nc([C@@H]3[C@@H](C)CCN3C(=O)c3nc(C)sc3-c3cccc(Cl)c3)[nH]c2c1 [Ex. 4.16] | 1 | 250
COc1cccc(-c2ccccc2C(=O)N2CCC[C@@]2(C)c2nc3c(C)c(C)ccc3[nH]2)c1 [Ex. 5.117] | 57 | 38
C=C1C[C@@H](c2nc3cccc(C)c3[nH]2)N(C(=O)c2cc(Cl)ccc2-n2nccn2)C1 [Ex. 6.102] | 364 | 32
Cc1c(Cl)ccc2[nH]c([C@]3(C)CCCN3C(=O)c3nc(-c4cccc(Cl)c4)sc3-c3ccc(F)cc3)nc12 [Ex. 5.257] | 13 | 329
Cc1ccc(-n2nccn2)c(C(=O)N2CC(F)(F)C[C@H]2c2nc3c(C)c(Cl)ccc3[nH]2)c1 [Ex. 2.6] | 52 | 59
Cc1nc(C(=O)N2CC[C@H](C)[C@H]2c2nc3cc(C(F)(F)F)ccc3[nH]2)c(-c2cc(F)cc(F)c2)s1 [Ex. 4.148] | 7 | 3180
COc1ccc(-n2nccn2)c(C(=O)N2CCC[C@@]2(C)c2nc3c(C)cccc3[nH]2)c1 [Ex. 5.50] | 49 | 33
Cc1cccc(-c2ccc(C)cc2C(=O)N2CCC[C@@]2(C)c2nc3c(C)c(C)ccc3[nH]2)c1 [Ex. 5.111] | 5 | 7
Cc1ccc(-n2cccn2)c(C(=O)N2CC[C@H](C)[C@H]2c2nc3cc(Cl)c(C)cc3[nH]2)c1 [Ex. 4.73] | 17 | 1290
Cc1ccc(-c2ccccc2C)c(C(=O)N2CCC[C@@]2(C)c2nc3cc(C)c(C)cc3[nH]2)c1 [Ex. 5.98] | 120 | 264
C=C1C[C@@H](c2nc3cccc(SC)c3[nH]2)N(C(=O)c2cc(C)ccc2-n2nccn2)C1 [Ex. 6.59] | 76 | 10
COc1cccc(-c2sc(C)nc2C(=O)N2CCC[C@@]2(C)c2nc3cc(OC(F)(F)F)ccc3[nH]2)c1 [Ex. 5.247] | 10 | 136
Cc1cccc(-c2ccccc2C(=O)N2CCC[C@@]2(C)c2nc3c(C)c(C)ccc3[nH]2)c1 [Ex. 5.118] | 25 | 35
COc1ccc(-n2nccn2)c(C(=O)N2CCC[C@@]2(C)c2nc3cc(C)c(C)cc3[nH]2)c1F [Ex. 5.55] | 113 | 202
C=C1C[C@@H](c2nc3cc(OC)ccc3[nH]2)N(C(=O)c2nc(C)sc2-c2ccc(OC)cc2)C1 [Ex. 6.2] | 223 | 17
